Assay results: ChEMBL document CHEMBL1136373, “Conformationally restricted 3,4-diarylfuranones (2,3a,4,5-tetrahydronaphthofuranones) as selective cyclooxygenase-2 inhibitors” (Bioorg Med Chem Lett, 2003)

Columns and labels:
[1] = target: T1, Prostaglandin G/H synthase 2 (Homo sapiens, UniProt P35354); assay: In vitro inhibitory activity against recombinant human Prostaglandin G/H synthase 2
T1 sequence (P35354 whole entry): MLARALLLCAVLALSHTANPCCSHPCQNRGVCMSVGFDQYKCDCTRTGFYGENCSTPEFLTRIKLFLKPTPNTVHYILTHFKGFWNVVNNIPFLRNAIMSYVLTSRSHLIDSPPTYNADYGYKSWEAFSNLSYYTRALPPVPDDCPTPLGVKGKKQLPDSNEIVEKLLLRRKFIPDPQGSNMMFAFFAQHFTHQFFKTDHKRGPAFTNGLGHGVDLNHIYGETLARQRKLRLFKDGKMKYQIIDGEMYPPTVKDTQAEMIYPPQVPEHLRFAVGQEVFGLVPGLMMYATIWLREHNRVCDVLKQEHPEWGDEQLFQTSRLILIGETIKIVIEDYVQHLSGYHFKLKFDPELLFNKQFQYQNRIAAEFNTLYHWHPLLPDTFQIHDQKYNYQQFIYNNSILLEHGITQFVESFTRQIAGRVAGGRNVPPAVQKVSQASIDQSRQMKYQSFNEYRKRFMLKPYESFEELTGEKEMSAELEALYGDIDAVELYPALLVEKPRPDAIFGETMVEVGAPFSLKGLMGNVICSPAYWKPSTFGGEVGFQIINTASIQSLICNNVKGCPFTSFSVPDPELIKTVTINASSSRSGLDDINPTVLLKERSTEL

[2] = target: T2, Prostaglandin G/H synthase 1 (Homo sapiens, UniProt P23219); assay: In vitro inhibitory activity against recombinant human Prostaglandin G/H synthase 1 at concentration of 100 uM
[3] = target: T2, Prostaglandin G/H synthase 1; assay: In vitro inhibitory activity against recombinant human Prostaglandin G/H synthase 1
[4] = target: T2, Prostaglandin G/H synthase 1; assay: Ratio of in vitro inhibitory activity against recombinant human COX-1 to that of recombinant human COX-2

T2 sequence (P23219 whole entry): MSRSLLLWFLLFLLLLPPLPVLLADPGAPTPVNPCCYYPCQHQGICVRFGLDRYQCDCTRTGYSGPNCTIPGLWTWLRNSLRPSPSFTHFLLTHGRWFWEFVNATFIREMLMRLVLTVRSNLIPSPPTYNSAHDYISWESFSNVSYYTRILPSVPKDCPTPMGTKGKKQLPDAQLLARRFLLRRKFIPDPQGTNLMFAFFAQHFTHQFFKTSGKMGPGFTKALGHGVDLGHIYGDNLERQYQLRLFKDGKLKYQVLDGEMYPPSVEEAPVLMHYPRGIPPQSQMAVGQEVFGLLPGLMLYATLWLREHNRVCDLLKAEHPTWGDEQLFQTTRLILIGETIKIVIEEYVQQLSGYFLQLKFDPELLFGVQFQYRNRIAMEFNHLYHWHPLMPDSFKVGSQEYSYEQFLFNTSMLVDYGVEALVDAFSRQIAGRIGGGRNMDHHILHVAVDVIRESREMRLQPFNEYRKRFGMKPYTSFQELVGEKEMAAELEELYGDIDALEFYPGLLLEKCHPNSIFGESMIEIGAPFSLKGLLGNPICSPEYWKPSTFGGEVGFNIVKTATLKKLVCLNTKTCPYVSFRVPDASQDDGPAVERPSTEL

Row | IC50 [1] | inhibition [2] | IC50 [3] | Ratio [4] | Structure (SMILES)
1 | 0.971 µM | 100% | 0.061 µM | – | CSc1ccc(C2=C3c4cc(C)ccc4CCC3OC2=O)cc1 (stereo unspecified)
2 | 0.67 µM | 97% | 13.2 µM | – | CSc1ccc(C2=C3c4cc(C)ccc4CCC3(O)OC2=O)cc1 (stereo unspecified)
3 | 0.665 µM | 52% | > 30 µM | > 45.1 | Cc1ccc2c(c1)C1=C(c3ccc(S(C)(=O)=O)cc3)C(=O)OC1CC2 (stereo unspecified)
4 | – | 11% | – | – | C[S+]([O-])c1ccc(C2=C3c4ccccc4CCC3(O)OC2=O)cc1 (stereo unspecified)
5 | 0.85 µM | 80% | 16.7 µM | – | CSc1ccc(C2=C3c4ccccc4CCC3(O)OC2=O)cc1 (stereo unspecified)
6 | 0.562 µM | 100% | > 45 µM | – | CS(=O)(=O)c1ccc(C2=C3c4ccccc4CCC3OC2=O)cc1 (stereo unspecified)
7 | – | 57% | – | – | CS(=O)(=O)c1ccc(C2=C3c4ccccc4CCC3(O)OC2=O)cc1 (stereo unspecified)

Row | Structure (SMILES) | IC50 [1] | inhibition [2] | IC50 [3] | Ratio [4]
8 | CSc1ccc(C2=C3c4ccccc4CCC3OC2=O)cc1 (stereo unspecified) | 0.827 µM | 100% | 0.053 µM | –
